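Where inhibition never reached the appropriate level, the endpoint shown equals the highest concentration tested. Otherwise, values were interpolated linearly from a five-concentration, 48-hour dose response in 96-well plates. The concentration for 50% growth inhibition is given as GI50.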 Active and inactive are the calls of the source. No stated cut-off is given here; in the data, active = GI50 up to about 1.1 µM and inactive = higher. Residues, ends and D or L forms follow the SMILES beside them. *: point of attachment. Cbz = O=C(OCc1ccccc1)*; Boc = CC(C)(C)OC(=O)*; OSu = O=C1CCC(=O)N1O*; Bn = c1ccc(C*)cc1

Test systems include SN12C; SNB-75; MOLT-4; BT-549; OVCAR-5; SK-MEL-5; HT-29; NCI-H460; K562; PC-3; UACC-62; SK-MEL-2; RPMI-8226; U-251; 786-0; UACC-257; KM12; NCI/ADR-RES; LOX IMVI; SR.
What all share (assay): NCI-60 cell line screen, 48 h

Consider `C=CCCCC1(C)CCNC1=S` (stereo not drawn), for which the GI50 with SN12C was > 100 µM (inactive); in the assay with SNB-75 it was > 100 µM (inactive); in the assay with MOLT-4 it was 66.5 µM (inactive); in the assay on BT-549 it was > 100 µM (inactive); in the assay with OVCAR-5, > 100 µM (inactive); with SK-MEL-5, > 100 µM (inactive). In addition, the GI50 in the assay on HT-29, with NCI-H460, in the assay with K562, with PC-3, with UACC-62 and with SK-MEL-2 was > 100 µM (inactive) throughout. Moreover, the GI50 in the assay on RPMI-8226, with U-251, in the assay with 786-0 and in the assay with UACC-257 was > 100 µM (inactive) throughout.

`CC1=CC(=O)/C(=C/NC(=S)Nc2ccc(S(N)(=O)=O)cc2)C(=O)O1`: the GI50 with KM12, in the assay on NCI/ADR-RES, with SN12C, in the assay on SNB-75, in the assay on MOLT-4 and with BT-549 was > 100 µM (inactive) in each case. Also, the GI50 in the assay with OVCAR-5, in the assay with SK-MEL-5, in the assay on HT-29, in the assay on NCI-H460, in the assay with LOX IMVI and with UACC-62 was > 100 µM (inactive) throughout. In addition, the GI50 in the assay on SK-MEL-2, in the assay on U-251, in the assay with 786-0 and with UACC-257 was > 100 µM (inactive) throughout.

For `CC1(C)CC(C)(C)C1=NNC(N)=O`, the GI50 in the assay on KM12, with NCI/ADR-RES, with SN12C, in the assay on SNB-75, in the assay with MOLT-4 and in the assay with OVCAR-5 was > 100 µM (inactive) throughout. Moreover, the GI50 in the assay with SK-MEL-5, in the assay on HT-29, with NCI-H460, with K562, in the assay on PC-3 and in the assay with LOX IMVI was > 100 µM (inactive) in each case. Also, the GI50 in the assay on UACC-62, with SK-MEL-2, in the assay on SR, in the assay on U-251, in the assay on 786-0 and with UACC-257 was > 100 µM (inactive) each time.

Take `O=[N+]([O-])/C(C(Cl)=C(Cl)Cl)=C(/Cl)SCc1ccccc1`: the GI50 with KM12 is 18.8 µM (inactive); in the assay on NCI/ADR-RES it was 1.85 µM (inactive); in the assay with SN12C, 3.61 µM (inactive); with SNB-75, 1.02 µM (active); in the assay on MOLT-4, 0.393 µM (active); with OVCAR-5 it was 5.09 µM (inactive). Also, the GI50 in the assay with SK-MEL-5 is 8.43 µM (inactive); with HT-29 it was 11.5 µM (inactive); in the assay on NCI-H460, 16.3 µM (inactive); with K562 it was 1.15 µM (inactive); in the assay with PC-3 it was 16 µM (inactive); with LOX IMVI it was 11.3 µM (inactive). Also, the GI50 with UACC-62 is 3.94 µM (inactive); in the assay with SK-MEL-2, 22.1 µM (inactive); in the assay on SR, 1.43 µM (inactive); in the assay with RPMI-8226, 0.889 µM (active); with U-251 it was 8.04 µM (inactive); with 786-0, 1.65 µM (inactive). For the same compound, the GI50 in the assay with UACC-257 was 3.39 µM (inactive).

For `COc1ccc(/N=N/c2c(-c3c(OC)cc4occc4c3OC)[nH]c(=O)c(C#N)c2C)cc1`, the GI50 in the assay with KM12 is > 100 µM (inactive); with NCI/ADR-RES it was > 100 µM (inactive); in the assay with SN12C it was > 100 µM (inactive); in the assay on SNB-75, 53.2 µM (inactive); in the assay on MOLT-4, > 100 µM (inactive); in the assay on OVCAR-5, > 100 µM (inactive). The GI50 in the assay on SK-MEL-5, in the assay on HT-29, in the assay with NCI-H460, in the assay on K562, with PC-3 and in the assay on LOX IMVI was > 100 µM (inactive) in each case. For the same compound, the GI50 in the assay on UACC-62, in the assay on SK-MEL-2, in the assay on SR, in the assay on RPMI-8226, in the assay on U-251 and in the assay with 786-0 was > 100 µM (inactive) each time. For the same compound, in the assay with UACC-257, the GI50 is > 100 µM (inactive).

As for `O=C1CSC2=NC3=C(CSC/C3=C\c3ccccc3)C(c3ccccc3)N12` (stereo not drawn), the GI50 with KM12 was 70.3 µM (inactive); in the assay with NCI/ADR-RES it was > 100 µM (inactive); with SN12C, 92.9 µM (inactive); in the assay with SNB-75, 29.6 µM (inactive); in the assay with MOLT-4, 53.5 µM (inactive); in the assay with OVCAR-5, > 100 µM (inactive). Besides, the GI50 is 52.1 µM (inactive) in the assay with SK-MEL-5; 95.5 µM (inactive) in the assay on HT-29; 81.3 µM (inactive) with NCI-H460; 39.4 µM (inactive) in the assay with K562; 28.1 µM (inactive) in the assay on PC-3; 44.5 µM (inactive) with LOX IMVI. Moreover, the GI50 with UACC-62 is > 100 µM (inactive); in the assay on SK-MEL-2 it was > 100 µM (inactive); with SR, 65.3 µM (inactive); in the assay on RPMI-8226, 31.1 µM (inactive); with U-251, 39.8 µM (inactive); with 786-0, > 100 µM (inactive). In the assay with UACC-257, the GI50 is > 100 µM (inactive).

Regarding `O=C1CCCCC/C1=C\c1ccccc1`, the GI50 with KM12 is > 100 µM (inactive); in the assay on SN12C it was > 100 µM (inactive); with SNB-75, 87.3 µM (inactive); in the assay on MOLT-4 it was 80.9 µM (inactive); in the assay on BT-549, > 100 µM (inactive); in the assay with OVCAR-5, > 100 µM (inactive). Besides, the GI50 was 45 µM (inactive) in the assay on SK-MEL-5; > 100 µM (inactive) with HT-29; 90.6 µM (inactive) with NCI-H460; > 100 µM (inactive) in the assay with K562; > 100 µM (inactive) in the assay with PC-3; > 100 µM (inactive) with LOX IMVI. Moreover, the GI50 with UACC-62 is 63.4 µM (inactive); in the assay on SK-MEL-2, > 100 µM (inactive); with SR it was > 100 µM (inactive); with RPMI-8226, 56.4 µM (inactive); in the assay on U-251, > 100 µM (inactive); in the assay on 786-0 it was > 100 µM (inactive). Also, the GI50 with UACC-257 is > 100 µM (inactive).

For the compound `CC(C)(C)OC(=O)NC(Cc1ccc(OCc2ccccc2)cc1)C(=O)NC(CCCCNC(=O)OCc1ccccc1)C(=O)NC(CCCCNC(=O)OCc1ccccc1)C(=O)ON1C(=O)CCC1=O` (stereo not drawn) (Boc-Tyr(Bn)-Lys(Cbz)-Lys(Cbz)-OSu; configuration not given here), the GI50 with KM12 was 46.1 µM (inactive); in the assay with NCI/ADR-RES it was > 100 µM (inactive); in the assay on SN12C, > 10 µM (inactive); in the assay on SNB-75 it was 51.6 µM (inactive); with MOLT-4, > 100 µM (inactive); in the assay on BT-549, 17.9 µM (inactive). In addition, the GI50 with OVCAR-5 is 36.7 µM (inactive); with SK-MEL-5, 26 µM (inactive); in the assay on HT-29 it was 41.1 µM (inactive); in the assay with NCI-H460, 71.1 µM (inactive); in the assay with UACC-62 it was 15.7 µM (inactive); in the assay with SK-MEL-2, 38.4 µM (inactive). The GI50 in the assay with SR is > 100 µM (inactive); with RPMI-8226, > 100 µM (inactive); with U-251, 16.3 µM (inactive); in the assay with 786-0, 20.8 µM (inactive); in the assay with UACC-257, > 100 µM (inactive).

Source of the values: ChEMBL document CHEMBL1201862, “PubChem BioAssay data set” (2004).
